Results taken from patent US10167262B2, “Herbicidal substituted 3-arylpyrazoles” (FMC CORPORATION, priority 2014, dated 2019).

Legend:
Type in all cases: in vivo
[1] = test system: barnyardgrass (Echinochloa crus-galli); assay: Test C pre-/postemergence greenhouse test, plant response rating 0-100; conditions: Preemergence
Summary of the method: (§1)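 Plants were scored visually against controls 13–15 days after treatment on a 0–100 scale, 100 meaning complete control. Test chemicals, formulated in surfactant-containing non-phytotoxic solvent, went preemergence onto seeds in loam–sand blend or postemergence onto 1- to 4-leaf plants (2–18 cm) grown in peat-based mix.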

[2] = test system: oilseed rape (Brassica napus); assay: as above; conditions: Preemergence
Summary of the method: as §1

[3] = test system: waterhemp (common waterhemp, Amaranthus rudis); assay: as above; conditions: Preemergence
Summary of the method: as §1

[4] = test system: bermudagrass (Cynodon dactylon); assay: Test C postemergence greenhouse test, plant response rating 0-100; conditions: for Plant response rating, Bermudagrass: scale 0 to 100
Summary of the method: (§2)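 First, plants were raised in a sphagnum peat, vermiculite and nutrient medium to 1–4 leaves. Next, formulated test compounds were applied over the foliage. Finally, after 13–15 greenhouse days, injury was compared with controls and scored 0–100.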

[5] = test system: canarygrass (Phalaris minor); assay: as above; conditions: for Plant response rating, Canarygrass: scale 0 to 100
Summary of the method: as §2

[6] = test system: cocklebur (common cocklebur, Xanthium strumarium); assay: as above; conditions: for Plant response rating, Cocklebur: scale 0 to 100
Summary of the method: as §2

[7] = test system: deadnettle (henbit deadnettle, Lamium amplexicaule); assay: as above; conditions: for Plant response rating, Deadnettle: scale 0 to 100
Summary of the method: as §2

[8] = test system: downy bromegrass (Bromus tectorum); assay: as above; conditions: for Plant response rating, Bromegrass, Downy: scale 0 to 100
Summary of the method: as §2

[9] = test system: goosegrass (Eleusine indica); assay: as above; conditions: for Plant response rating, Goosegrass: scale 0 to 100
Summary of the method: as §2

[10] = test system: green foxtail (Setaria viridis); assay: as above; conditions: for Plant response rating, Foxtail, Green: scale 0 to 100
Summary of the method: as §2

[11] = test system: surinam grass (Brachiaria decumbens); assay: as above; conditions: for Plant response rating, Surinam Grass: scale 0 to 100
Summary of the method: as §2

[12] = test system: windgrass (Apera spica-venti); assay: as above; conditions: for Plant response rating, Windgrass: scale 0 to 100
Summary of the method: as §2

[13] = test system: winter barley (Hordeum vulgare); assay: as above; conditions: for Plant response rating, Barley: scale 0 to 100
Summary of the method: as §2

[14] = test system: woolly cupgrass (Eriochloa villosa); assay: as above; conditions: for Plant response rating, Cupgrass, Woolly: scale 0 to 100
Summary of the method: as §2

[15] = test system: waterhemp_RES2, (ALS & HPPD resistant common waterhemp, Amaranthus rudis); assay: Test E postemergence greenhouse test, plant response rating 0-100; conditions: scale 0 to 100
Summary of the method: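 Visual ratings, 0 (no effect) to 100 (complete control), made versus controls 14–21 days after postemergence application in the greenhouse. Plants were at 1- to 4-leaf stage (2–18 cm) in peat moss/vermiculite potting medium.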

C#CCn1cc(C(=O)c2ccccc2)c(-c2cc(Cl)cc(Cl)c2)n1 [Compound 39, [3-(3,5-dichlorophenyl)-1-(2-propyn-1-yl)-1H-pyrazol-4-yl]phenylmethanone]
Plant response rating, Barnyardgrass ([1]; 62 g ai/ha): 0
Plant response rating, Barnyardgrass ([1]; 125 g ai/ha): 0
Plant response rating, Barnyardgrass ([1]; 250 g ai/ha): 0
Plant response rating, Barnyardgrass ([1]; 500 g ai/ha): 0
Plant response rating, Oilseed Rape ([2]; 62 g ai/ha): 0
Plant response rating, Oilseed Rape ([2]; 125 g ai/ha): 30
Plant response rating, Oilseed Rape ([2]; 250 g ai/ha): 50
Plant response rating, Oilseed Rape ([2]; 500 g ai/ha): 80
Plant response rating, Waterhemp ([3]; 62 g ai/ha): 75
Plant response rating, Waterhemp ([3]; 125 g ai/ha): 100
Plant response rating, Waterhemp ([3]; 250 g ai/ha): 100
Plant response rating, Waterhemp ([3]; 500 g ai/ha): 100
Plant response rating (0 to 100), Bermudagrass ([4]; 62 g ai/ha): 0
Plant response rating (0 to 100), Bermudagrass ([4]; 125 g ai/ha): 0
Plant response rating, Bermudagrass ([4]; 250 g ai/ha): 0
Plant response rating, Bermudagrass ([4]; 500 g ai/ha): 0
Plant response rating (0 to 100), Canarygrass ([5]; 62 g ai/ha): 0
Plant response rating (0 to 100), Canarygrass ([5]; 125 g ai/ha): 0
Plant response rating, Canarygrass ([5]; 250 g ai/ha): 0
Plant response rating, Canarygrass ([5]; 500 g ai/ha): 0
Plant response rating (0 to 100), Cocklebur ([6]; 62 g ai/ha): 15
Plant response rating (0 to 100), Cocklebur ([6]; 125 g ai/ha): 55
Plant response rating, Cocklebur ([6]; 250 g ai/ha): 55
Plant response rating, Cocklebur ([6]; 500 g ai/ha): 55
Plant response rating (0 to 100), Deadnettle ([7]; 62 g ai/ha): 0
Plant response rating (0 to 100), Deadnettle ([7]; 125 g ai/ha): 0
Plant response rating, Deadnettle ([7]; 250 g ai/ha): 0
Plant response rating, Deadnettle ([7]; 500 g ai/ha): 0
Plant response rating (0 to 100), Bromegrass, Downy ([8]; 62 g ai/ha): 0
Plant response rating (0 to 100), Bromegrass, Downy ([8]; 125 g ai/ha): 0
Plant response rating, Bromegrass, Downy ([8]; 250 g ai/ha): 0
Plant response rating, Bromegrass, Downy ([8]; 500 g ai/ha): 5
Plant response rating (0 to 100), Goosegrass ([9]; 62 g ai/ha): 0
Plant response rating (0 to 100), Goosegrass ([9]; 125 g ai/ha): 0
Plant response rating, Goosegrass ([9]; 250 g ai/ha): 0
Plant response rating, Goosegrass ([9]; 500 g ai/ha): 0
Plant response rating (0 to 100), Foxtail, Green ([10]; 62 g ai/ha): 0
Plant response rating (0 to 100), Foxtail, Green ([10]; 125 g ai/ha): 0
Plant response rating, Foxtail, Green ([10]; 250 g ai/ha): 0
Plant response rating, Foxtail, Green ([10]; 500 g ai/ha): 5
Plant response rating (0 to 100), Surinam Grass ([11]; 62 g ai/ha): 0
Plant response rating (0 to 100), Surinam Grass ([11]; 125 g ai/ha): 0
Plant response rating, Surinam Grass ([11]; 250 g ai/ha): 0
Plant response rating, Surinam Grass ([11]; 500 g ai/ha): 0
Plant response rating (0 to 100), Windgrass ([12]; 62 g ai/ha): 0
Plant response rating (0 to 100), Windgrass ([12]; 125 g ai/ha): 0
Plant response rating, Windgrass ([12]; 250 g ai/ha): 0
Plant response rating, Windgrass ([12]; 500 g ai/ha): 0
Plant response rating (0 to 100), Barley ([13]; 62 g ai/ha): 0
Plant response rating (0 to 100), Barley ([13]; 125 g ai/ha): 0
Plant response rating, Barley ([13]; 250 g ai/ha): 0
Plant response rating, Barley ([13]; 500 g ai/ha): 0
Plant response rating (0 to 100), Cupgrass, Woolly ([14]; 62 g ai/ha): 0
Plant response rating (0 to 100), Cupgrass, Woolly ([14]; 125 g ai/ha): 0
Plant response rating, Cupgrass, Woolly ([14]; 250 g ai/ha): 0
Plant response rating, Cupgrass, Woolly ([14]; 500 g ai/ha): 0
Plant response rating, Waterhemp_RES2 ([15]; 31 g ai/ha): 70
Plant response rating, Waterhemp_RES2 ([15]; 62 g ai/ha): 75
Plant response rating, Waterhemp_RES2 ([15]; 125 g ai/ha): 85
Plant response rating, Waterhemp_RES2 ([15]; 250 g ai/ha): 90
Plant response rating, Waterhemp_RES2 ([15]; 500 g ai/ha): 90

ON=C(c1ccccc1)c1c[nH]nc1-c1cc(Cl)cc(Cl)c1 [Compound 50]
Plant response rating (0 to 100), Bermudagrass ([4]; 31 g ai/ha): 0
Plant response rating (0 to 100), Bermudagrass ([4]; 62 g ai/ha): 0
Plant response rating (0 to 100), Bermudagrass ([4]; 125 g ai/ha): 0
Plant response rating, Bermudagrass ([4]; 250 g ai/ha): 0
Plant response rating (0 to 100), Canarygrass ([5]; 31 g ai/ha): 0
Plant response rating (0 to 100), Canarygrass ([5]; 62 g ai/ha): 0
Plant response rating (0 to 100), Canarygrass ([5]; 125 g ai/ha): 0
Plant response rating, Canarygrass ([5]; 250 g ai/ha): 0
Plant response rating (0 to 100), Cocklebur ([6]; 31 g ai/ha): 5
Plant response rating (0 to 100), Cocklebur ([6]; 62 g ai/ha): 15
Plant response rating (0 to 100), Cocklebur ([6]; 125 g ai/ha): 55
Plant response rating, Cocklebur ([6]; 250 g ai/ha): 90
Plant response rating (0 to 100), Deadnettle ([7]; 31 g ai/ha): 0
Plant response rating (0 to 100), Deadnettle ([7]; 62 g ai/ha): 0
Plant response rating (0 to 100), Deadnettle ([7]; 125 g ai/ha): 0
Plant response rating, Deadnettle ([7]; 250 g ai/ha): 40
Plant response rating (0 to 100), Bromegrass, Downy ([8]; 31 g ai/ha): 0
Plant response rating (0 to 100), Bromegrass, Downy ([8]; 62 g ai/ha): 0
Plant response rating (0 to 100), Bromegrass, Downy ([8]; 125 g ai/ha): 0
Plant response rating, Bromegrass, Downy ([8]; 250 g ai/ha): 0
Plant response rating (0 to 100), Goosegrass ([9]; 31 g ai/ha): 0
Plant response rating (0 to 100), Goosegrass ([9]; 62 g ai/ha): 0
Plant response rating (0 to 100), Goosegrass ([9]; 125 g ai/ha): 0
Plant response rating, Goosegrass ([9]; 250 g ai/ha): 0
Plant response rating (0 to 100), Foxtail, Green ([10]; 31 g ai/ha): 0
Plant response rating (0 to 100), Foxtail, Green ([10]; 62 g ai/ha): 0
Plant response rating (0 to 100), Foxtail, Green ([10]; 125 g ai/ha): 0
Plant response rating, Foxtail, Green ([10]; 250 g ai/ha): 0
Plant response rating (0 to 100), Surinam Grass ([11]; 62 g ai/ha): 0
Plant response rating (0 to 100), Surinam Grass ([11]; 125 g ai/ha): 0
Plant response rating, Surinam Grass ([11]; 250 g ai/ha): 0
Plant response rating (0 to 100), Windgrass ([12]; 62 g ai/ha): 0
Plant response rating (0 to 100), Windgrass ([12]; 125 g ai/ha): 0
Plant response rating, Windgrass ([12]; 250 g ai/ha): 0
Plant response rating (0 to 100), Barley ([13]; 31 g ai/ha): 0
Plant response rating (0 to 100), Barley ([13]; 62 g ai/ha): 0
Plant response rating (0 to 100), Barley ([13]; 125 g ai/ha): 0
Plant response rating, Barley ([13]; 250 g ai/ha): 0
Plant response rating (0 to 100), Cupgrass, Woolly ([14]; 31 g ai/ha): 0
Plant response rating (0 to 100), Cupgrass, Woolly ([14]; 62 g ai/ha): 0
Plant response rating (0 to 100), Cupgrass, Woolly ([14]; 125 g ai/ha): 0
Plant response rating, Cupgrass, Woolly ([14]; 250 g ai/ha): 0
Plant response rating, Waterhemp_RES2 ([15]; 31 g ai/ha): 75
Plant response rating, Waterhemp_RES2 ([15]; 125 g ai/ha): 100
Plant response rating, Waterhemp_RES2 ([15]; 250 g ai/ha): 100
Plant response rating, Waterhemp_RES2 ([15]; 500 g ai/ha): 100
